# Measured values: PubChem BioAssay AID1259407 (Chemical Carcinogenesis Research Information System (CCRIS), 2018)
# The source made the active and inactive calls. No rule for the calls is given here.
# Tested on: CCRIS mutagenicity, Ames/micronucleus/aberration tests
# Assay: CCRIS mutagenicity studies
# [1] = Test System: AMES SALMONELLA TYPHIMURIUM, Strain/Indicator: TA98, Metabolic Activation: NONE, Method: PREINCUBATION
# [2] = Test System: AMES SALMONELLA TYPHIMURIUM, Strain/Indicator: TA100, Metabolic Activation: NONE, Method: PREINCUBATION
# [3] = Test System: AMES SALMONELLA TYPHIMURIUM, Strain/Indicator: TA1535, Metabolic Activation: NONE, Method: PREINCUBATION
# [4] = Test System: AMES SALMONELLA TYPHIMURIUM, Strain/Indicator: TA1537, Metabolic Activation: NONE, Method: PREINCUBATION
# [5] = Test System: AMES SALMONELLA TYPHIMURIUM, Strain/Indicator: TA98, Metabolic Activation: NONE, Method: STANDARD PLATE
# [6] = Test System: AMES SALMONELLA TYPHIMURIUM, Strain/Indicator: TA98, Metabolic Activation: RAT, LIVER, S-9, AROCLOR 1254, Method: STANDARD PLATE
# [7] = Test System: AMES SALMONELLA TYPHIMURIUM, Strain/Indicator: TA100, Metabolic Activation: RAT, LIVER, S-9, AROCLOR 1254, Method: STANDARD PLATE
compound,measurement,setting,value
CN(C)C,mutagenic call,"Test System: AMES SALMONELLA TYPHIMURIUM, Strain/Indicator: TA98, Metabolic Activation: HAMSTER, LIVER, S-9, AROCLOR 1254 (10%), Method: PREINCUBATION",inactive; negative
same,mutagenic call,[1],inactive; negative
same,mutagenic call,"Test System: AMES SALMONELLA TYPHIMURIUM, Strain/Indicator: TA98, Metabolic Activation: RAT, LIVER, S-9, AROCLOR 1254 (10%), Method: PREINCUBATION",inactive; negative
same,mutagenic call,"Test System: AMES SALMONELLA TYPHIMURIUM, Strain/Indicator: TA100, Metabolic Activation: HAMSTER, LIVER, S-9, AROCLOR 1254 (10%), Method: PREINCUBATION",inactive; negative
same,mutagenic call,[2],inactive; negative
same,mutagenic call,"Test System: AMES SALMONELLA TYPHIMURIUM, Strain/Indicator: TA100, Metabolic Activation: RAT, LIVER, S-9, AROCLOR 1254 (10%), Method: PREINCUBATION",inactive; negative
same,mutagenic call,"Test System: AMES SALMONELLA TYPHIMURIUM, Strain/Indicator: TA1535, Metabolic Activation: HAMSTER, LIVER, S-9, AROCLOR 1254 (10%), Method: PREINCUBATION",inactive; negative
same,mutagenic call,[3],inactive; negative
same,mutagenic call,"Test System: AMES SALMONELLA TYPHIMURIUM, Strain/Indicator: TA1535, Metabolic Activation: RAT, LIVER, S-9, AROCLOR 1254 (10%), Method: PREINCUBATION",inactive; negative
same,mutagenic call,"Test System: AMES SALMONELLA TYPHIMURIUM, Strain/Indicator: TA1537, Metabolic Activation: HAMSTER, LIVER, S-9, AROCLOR 1254 (10%), Method: PREINCUBATION",inactive; negative
same,mutagenic call,[4],inactive; negative
same,mutagenic call,"Test System: AMES SALMONELLA TYPHIMURIUM, Strain/Indicator: TA1537, Metabolic Activation: RAT, LIVER, S-9, AROCLOR 1254 (10%), Method: PREINCUBATION",inactive; negative
O=c1ccc2cc3cc4cccc5ccc(c2c1)c3c54,mutagenic call,[5],inactive; negative
same,mutagenic call,[6],inactive; negative
same,mutagenic call,[7],active; positive
N#Cc1ccccc1,mutagenic call,"End Point: IN VITRO MICRONUCLEUS, Test System: CHINESE HAMSTER V79, Metabolic Activation: NONE",active; positive
same,mutagenic call,"Test System: AMES SALMONELLA TYPHIMURIUM, Strain/Indicator: TA97, Metabolic Activation: HAMSTER, LIVER, S-9, AROCLOR 1254 (10 OR 30%), Method: PREINCUBATION",inactive; negative
same,mutagenic call,"Test System: AMES SALMONELLA TYPHIMURIUM, Strain/Indicator: TA97, Metabolic Activation: NONE, Method: PREINCUBATION",inactive; negative
same,mutagenic call,"Test System: AMES SALMONELLA TYPHIMURIUM, Strain/Indicator: TA97, Metabolic Activation: RAT, LIVER, S-9, AROCLOR 1254 (10 OR 30%), Method: PREINCUBATION",inactive; negative
same,mutagenic call,"Test System: AMES SALMONELLA TYPHIMURIUM, Strain/Indicator: TA98, Metabolic Activation: HAMSTER, LIVER, S-9, AROCLOR 1254 (10 OR 30%), Method: PREINCUBATION",inactive; negative
same,mutagenic call,"Test System: AMES SALMONELLA TYPHIMURIUM, Strain/Indicator: TA98, Metabolic Activation: HAMSTER, LIVER, S-9, AROCLOR 1254, Method: STANDARD PLATE",inactive; negative
same,mutagenic call,[1],inactive; negative
same,mutagenic call,[5],inactive; negative
same,mutagenic call,"Test System: AMES SALMONELLA TYPHIMURIUM, Strain/Indicator: TA98, Metabolic Activation: RAT LIVER S-9, PHENOBARBITAL AND BETA-NAPHTHOFLAVONE, Method: PREINCUBATION",inactive; negative
same,mutagenic call,"Test System: AMES SALMONELLA TYPHIMURIUM, Strain/Indicator: TA98, Metabolic Activation: RAT, LIVER, S-9, AROCLOR 1254 (10 OR 30%), Method: PREINCUBATION",inactive; negative
same,mutagenic call,[6],inactive; negative
same,mutagenic call,"Test System: AMES SALMONELLA TYPHIMURIUM, Strain/Indicator: TA100, Metabolic Activation: HAMSTER, LIVER, S-9, AROCLOR 1254 (10 OR 30%), Method: PREINCUBATION",inactive; negative
same,mutagenic call,"Test System: AMES SALMONELLA TYPHIMURIUM, Strain/Indicator: TA100, Metabolic Activation: HAMSTER, LIVER, S-9, AROCLOR 1254, Method: STANDARD PLATE",inactive; negative
same,mutagenic call,[2],inactive; negative
same,mutagenic call,"Test System: AMES SALMONELLA TYPHIMURIUM, Strain/Indicator: TA100, Metabolic Activation: NONE, Method: STANDARD PLATE",inactive; negative
same,mutagenic call,"Test System: AMES SALMONELLA TYPHIMURIUM, Strain/Indicator: TA100, Metabolic Activation: RAT LIVER S-9, PHENOBARBITAL AND BETA-NAPHTHOFLAVONE, Method: PREINCUBATION",inactive; negative
same,mutagenic call,"Test System: AMES SALMONELLA TYPHIMURIUM, Strain/Indicator: TA100, Metabolic Activation: RAT, LIVER, S-9, AROCLOR 1254 (10 OR 30%), Method: PREINCUBATION",inactive; negative
same,mutagenic call,[7],inactive; negative
same,mutagenic call,"Test System: AMES SALMONELLA TYPHIMURIUM, Strain/Indicator: TA1535, Metabolic Activation: HAMSTER, LIVER, S-9, AROCLOR 1254 (10 OR 30%), Method: PREINCUBATION",inactive; negative
same,mutagenic call,"Test System: AMES SALMONELLA TYPHIMURIUM, Strain/Indicator: TA1535, Metabolic Activation: HAMSTER, LIVER, S-9, AROCLOR 1254, Method: STANDARD PLATE",inactive; negative
same,mutagenic call,[3],inactive; negative
same,mutagenic call,"Test System: AMES SALMONELLA TYPHIMURIUM, Strain/Indicator: TA1535, Metabolic Activation: NONE, Method: STANDARD PLATE",inactive; negative
same,mutagenic call,"Test System: AMES SALMONELLA TYPHIMURIUM, Strain/Indicator: TA1535, Metabolic Activation: RAT LIVER S-9, PHENOBARBITAL AND BETA-NAPHTHOFLAVONE, Method: PREINCUBATION",inactive; negative
same,mutagenic call,"Test System: AMES SALMONELLA TYPHIMURIUM, Strain/Indicator: TA1535, Metabolic Activation: RAT, LIVER, S-9, AROCLOR 1254 (10 OR 30%), Method: PREINCUBATION",inactive; negative
same,mutagenic call,"Test System: AMES SALMONELLA TYPHIMURIUM, Strain/Indicator: TA1535, Metabolic Activation: RAT, LIVER, S-9, AROCLOR 1254, Method: STANDARD PLATE",inactive; negative
same,mutagenic call,"Test System: AMES SALMONELLA TYPHIMURIUM, Strain/Indicator: TA1537, Metabolic Activation: HAMSTER, LIVER, S-9, AROCLOR 1254, Method: STANDARD PLATE",inactive; negative
same,mutagenic call,[4],inactive; negative
same,mutagenic call,"Test System: AMES SALMONELLA TYPHIMURIUM, Strain/Indicator: TA1537, Metabolic Activation: NONE, Method: STANDARD PLATE",inactive; negative
same,mutagenic call,"Test System: AMES SALMONELLA TYPHIMURIUM, Strain/Indicator: TA1537, Metabolic Activation: RAT LIVER S-9, PHENOBARBITAL AND BETA-NAPHTHOFLAVONE, Method: PREINCUBATION",inactive; negative
same,mutagenic call,"Test System: AMES SALMONELLA TYPHIMURIUM, Strain/Indicator: TA1537, Metabolic Activation: RAT, LIVER, S-9, AROCLOR 1254, Method: STANDARD PLATE",inactive; negative
same,mutagenic call,"Test System: AMES SALMONELLA TYPHIMURIUM, Strain/Indicator: TA1538, Metabolic Activation: HAMSTER, LIVER, S-9, AROCLOR 1254, Method: STANDARD PLATE",inactive; negative
same,mutagenic call,"Test System: AMES SALMONELLA TYPHIMURIUM, Strain/Indicator: TA1538, Metabolic Activation: NONE, Method: STANDARD PLATE",inactive; negative
same,mutagenic call,"Test System: AMES SALMONELLA TYPHIMURIUM, Strain/Indicator: TA1538, Metabolic Activation: RAT, LIVER, S-9, AROCLOR 1254, Method: STANDARD PLATE",inactive; negative
same,mutagenic call,"Test System: E. COLI, Strain/Indicator: WP2UVRA, Metabolic Activation: NONE, Method: PREINCUBATION",inactive; negative
same,mutagenic call,"Test System: E. COLI, Strain/Indicator: WP2UVRA, Metabolic Activation: RAT LIVER S-9, PHENOBARBITAL AND BETA-NAPHTHOFLAVONE, Method: PREINCUBATION",inactive; negative
same,mutagenic call,"Test System: MOUSE LYMPHOMA, Strain/Indicator: L5178Y (TK+/TK-), Metabolic Activation: NONE, Method: SUSPENSION/PLATE",inactive; negative. reevaluation of results: negative
same,mutagenic call,"Test System: MOUSE LYMPHOMA, Strain/Indicator: L5178Y (TK+/TK-), Metabolic Activation: RAT, LIVER, S-9, AROCLOR 1254, Method: SUSPENSION/PLATE",inactive; negative. reevaluation of results: negative
